Results reported in article PMC3530165 (Chemistry & biology, 2012).
Read-outs that look alike come from different tables or passages of the source.

Target: C619A GlcB (malate synthase) (Mycobacterium tuberculosis, UniProt P9WK17, C619A)

Structure (SMILES)	IC50	IC50 (read-out: IC50 against GlcB)
O=C(O)C(=O)CC(=O)c1ccc(Br)cc1 [Compound 9]	5.7 µM	6 µM
O=C(O)C(=O)CC(=O)c1cccc(Cl)c1 [Compound 6]	0.17 µM	
Cc1ccc(C(=O)CC(=O)C(=O)O)cc1 [Compound 8]	6 µM	5.7 µM
O=C(O)C(=O)CC(=O)c1ccccc1Cl [Compound 3]	0.5 µM	
O=C(O)C(=O)CC(=O)c1ccccc1F [Compound 2]	0.24 µM	
